Here are results for twelve compounds from ChEMBL document CHEMBL1201862, “PubChem BioAssay data set” (2004).

Among the test systems are SK-MEL-5; SW-620; OVCAR-5; RXF 393; MDA-MB-435; K562; HCT-15; KM12; HCC 2998; BT-549; SNB-19; Hs-578T; HCT-116; NCI-H226; A549; SK-MEL-2; T47D; SNB-75; SF-539; RPMI-8226.
Common to all, as to test: growth of human tumour cells (NCI), 48 h

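The compound was tested at five concentrations on cells cultured in 96-well plates, with a 48-hour exposure period. GI50 marks 50% less growth.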 Calls of active or inactive are those of the source. Cut-off read from the data, not from the text of the source: active = GI50 up to about 1.1 µM and inactive = higher.

Turning to `c1ccc2/c3[nH]/c(c2c1)=N\c1ccc(cc1)-c1nc2cc(ccc2o1)/N=c1/[nH]/c(c2ccccc12)=N/c1ccc2nc(oc2c1)-c1ccc(cc1)\N=3`, the GI50 in the assay with SK-MEL-5 is > 100 µM (inactive); with SW-620, > 100 µM (inactive); in the assay with OVCAR-5, > 100 µM (inactive); with RXF 393 it was > 100 µM (inactive); with MDA-MB-435, 42.4 µM (inactive); with K562 it was > 100 µM (inactive). The GI50 in the assay with HCT-15 was above 100 µM; in the assay on KM12, 81.1 µM (inactive); with HCC 2998, 6.9 µM (inactive); in the assay with BT-549, > 100 µM (inactive); in the assay on SNB-19, > 100 µM (inactive); in the assay on Hs-578T, > 100 µM (inactive). The GI50 with HCT-116 is > 100 µM (inactive).
In the case of `CCOc1ccc(/C=C2/C(=O)N/C(=N\C(C)=O)N2C)cc1`, the GI50 in the assay on SK-MEL-5, with NCI-H226, in the assay with SW-620, in the assay on OVCAR-5, in the assay with RXF 393 and in the assay on A549 was > 100 µM (inactive) each time. Also, the GI50 in the assay on MDA-MB-435 is > 100 µM (inactive); in the assay with SK-MEL-2, > 100 µM (inactive); in the assay with T47D, > 100 µM (inactive); with HCT-15, 64.7 µM; with KM12 it was > 100 µM (inactive); in the assay on HCC 2998 it was > 100 µM (inactive). Also, the GI50 in the assay on BT-549, in the assay with SNB-19, in the assay on SNB-75, in the assay with SF-539 and with HCT-116 was > 100 µM (inactive) each time.
Turning to `COC(=O)C1(C)C=CC(=O)C2(C)C1C(O)C1OC3CC(c4ccoc4)C(C)=C3C1(C)C2CC(=O)O` (stereo not given), the GI50 in the assay on SK-MEL-5, in the assay on SW-620, in the assay with OVCAR-5, in the assay with A549, in the assay with MDA-MB-435 and in the assay on SK-MEL-2 was > 100 µM (inactive) in each case. Further, the GI50 with T47D was > 100 µM (inactive); in the assay on HCT-15, above 100 µM; with KM12, > 100 µM (inactive); with HCC 2998 it was > 100 µM (inactive); with BT-549, > 100 µM (inactive); with SNB-19, > 100 µM (inactive). Further, the GI50 in the assay on RPMI-8226, with Hs-578T, with SNB-75, with SF-539 and in the assay with HCT-116 was > 100 µM (inactive) each time.
For `Cc1cc(-c2ccc[nH]2)on1`, the GI50 in the assay with SK-MEL-5, in the assay on SW-620, in the assay on OVCAR-5, with RXF 393, in the assay on A549 and in the assay on MDA-MB-435 was > 100 µM (inactive) throughout. Besides, the GI50 was > 100 µM (inactive) in the assay on K562; > 100 µM (inactive) in the assay with SK-MEL-2; above 100 µM in the assay on HCT-15; > 100 µM (inactive) in the assay on KM12; > 100 µM (inactive) in the assay with HCC 2998; > 100 µM (inactive) in the assay on BT-549. Moreover, the GI50 in the assay on SNB-19, in the assay on RPMI-8226, in the assay with Hs-578T, in the assay on SNB-75 and in the assay with HCT-116 was > 100 µM (inactive) each time.
For the compound `O=C1c2cscc2C(=O)C1(O)O`, the GI50 is > 100 µM (inactive) in the assay on SK-MEL-5; > 100 µM (inactive) in the assay on NCI-H226; 20.4 µM (inactive) in the assay on SW-620; > 100 µM (inactive) in the assay with OVCAR-5; > 100 µM (inactive) in the assay with A549; 32.6 µM (inactive) in the assay with MDA-MB-435. For the same compound, the GI50 with K562 was 33 µM (inactive); in the assay with SK-MEL-2 it was > 100 µM (inactive); in the assay on T47D it was 18.6 µM (inactive); in the assay on HCT-15, 45.8 µM; with KM12, > 100 µM (inactive); in the assay with BT-549 it was 31.5 µM (inactive). In addition, the GI50 in the assay on SNB-19 is > 100 µM (inactive); in the assay on RPMI-8226, 45 µM (inactive); in the assay with Hs-578T, > 100 µM (inactive); in the assay with SF-539, > 100 µM (inactive); with HCT-116, 21.3 µM (inactive).
In the case of `Cn1c(=O)n2n(c1=O)C(S(=O)(=O)c1ccccc1)C2` (stereo not given), the GI50 in the assay on SK-MEL-5, in the assay on SW-620, in the assay on OVCAR-5, with RXF 393, in the assay with A549 and in the assay with MDA-MB-435 was > 100 µM (inactive) each time. The GI50 is > 100 µM (inactive) in the assay with K562; > 100 µM (inactive) with SK-MEL-2; above 100 µM with HCT-15; > 100 µM (inactive) with KM12; > 100 µM (inactive) in the assay on HCC 2998; > 100 µM (inactive) in the assay with BT-549. The GI50 in the assay on SNB-19, with RPMI-8226, in the assay on Hs-578T, in the assay on SNB-75, in the assay with SF-539 and in the assay with HCT-116 was > 100 µM (inactive) throughout.
For the compound `O=c1[nH]c2c(S)nc(O)nc2n1-c1ccccc1`, the GI50 with SK-MEL-5, in the assay with NCI-H226, in the assay with SW-620, with OVCAR-5, with RXF 393 and in the assay on A549 was > 100 µM (inactive) each time. For the same compound, the GI50 with MDA-MB-435 is > 100 µM (inactive); in the assay with K562 it was > 100 µM (inactive); in the assay with SK-MEL-2 it was > 100 µM (inactive); in the assay on HCT-15, above 100 µM; in the assay with KM12, > 100 µM (inactive); with HCC 2998, > 100 µM (inactive). The GI50 in the assay on BT-549, with SNB-19, in the assay on Hs-578T and in the assay on HCT-116 was > 100 µM (inactive) in each case.
As to `O=[N+]([O-])/C(Cl)=C(/C(Cl)=C(Cl)Cl)N1CCCCC1`, the GI50 was 6.44 µM (inactive) in the assay on SK-MEL-5; 13.9 µM (inactive) in the assay on NCI-H226; 14.9 µM (inactive) with OVCAR-5; 7.26 µM (inactive) in the assay on RXF 393; 12.6 µM (inactive) with A549; 8.81 µM (inactive) in the assay with MDA-MB-435. The GI50 with K562 was 7.64 µM (inactive); in the assay with SK-MEL-2, 25.2 µM (inactive); in the assay on T47D it was 11.8 µM (inactive); in the assay on HCT-15, 4.36 µM; in the assay on KM12, 14.5 µM (inactive); in the assay with HCC 2998, 15.9 µM (inactive). Besides, the GI50 was 24.5 µM (inactive) in the assay on SNB-19; 4.43 µM (inactive) in the assay on RPMI-8226; 5.06 µM (inactive) in the assay on Hs-578T; 18.8 µM (inactive) in the assay on SNB-75; 16.4 µM (inactive) in the assay on SF-539; 6.18 µM (inactive) with HCT-116.
For `CC(=O)N1CCOC12N=NC(C)(C)O2` (stereo not given), the GI50 in the assay with SK-MEL-5, in the assay with SW-620, with OVCAR-5, in the assay on A549, in the assay on MDA-MB-435 and in the assay with K562 was > 100 µM (inactive) each time. Besides, the GI50 in the assay with SK-MEL-2 is > 100 µM (inactive); in the assay on T47D it was > 100 µM (inactive); in the assay with HCT-15 it was above 100 µM; in the assay with KM12 it was > 100 µM (inactive); in the assay on HCC 2998, > 100 µM (inactive); in the assay on BT-549 it was > 100 µM (inactive). Also, the GI50 in the assay with SNB-19, in the assay on RPMI-8226, in the assay with Hs-578T, in the assay with SNB-75, in the assay with SF-539 and with HCT-116 was > 100 µM (inactive) throughout.
In the case of `CC1(C)OCC(C2OC(OC(=O)c3ccc(C(F)(F)F)cc3)C3OC(C)(C)OC23)O1` (stereo not given), the GI50 was 74.5 µM (inactive) in the assay on SK-MEL-5; > 77.4 µM (inactive) with NCI-H226; > 77.4 µM (inactive) in the assay with SW-620; > 77.4 µM (inactive) in the assay with OVCAR-5; 28 µM (inactive) with RXF 393; > 77.4 µM (inactive) with A549. Besides, the GI50 with MDA-MB-435 is > 77.4 µM (inactive); with K562, > 77.4 µM (inactive); with SK-MEL-2 it was > 77.4 µM (inactive); with HCT-15 it was above 77.4 µM; in the assay on KM12 it was 72.3 µM (inactive); in the assay with HCC 2998, > 77.4 µM (inactive). The GI50 with BT-549 was > 77.4 µM (inactive); in the assay with SNB-19 it was > 77.4 µM (inactive); in the assay with RPMI-8226, 44.4 µM (inactive); with SNB-75, 40.2 µM (inactive); with SF-539, > 77.4 µM (inactive); in the assay on HCT-116, > 77.4 µM (inactive).
On to `O=C(O)c1ccccc1/C=C1\Cc2cc3c(cc2C1=O)CCC3`, for which the GI50 is 18.1 µM (inactive) in the assay on SK-MEL-5; 24 µM (inactive) with NCI-H226; 21.8 µM (inactive) in the assay with SW-620; 57.1 µM (inactive) in the assay on OVCAR-5; 21.3 µM (inactive) with RXF 393; 30.1 µM (inactive) in the assay on A549. Also, the GI50 is 12.7 µM (inactive) with MDA-MB-435; 17.1 µM (inactive) in the assay with K562; 23.4 µM (inactive) in the assay on SK-MEL-2; 9.23 µM (inactive) in the assay with T47D; 16.3 µM in the assay with HCT-15; 19.2 µM (inactive) in the assay with KM12. The GI50 in the assay on HCC 2998 is 27.6 µM (inactive); with BT-549, 56.9 µM (inactive); in the assay with SNB-19, 26.7 µM (inactive); with RPMI-8226, 21.1 µM (inactive); with SNB-75, 3.57 µM (inactive); with SF-539, 29.1 µM (inactive). Moreover, the GI50 in the assay on HCT-116 is 27.9 µM (inactive).
As to `N#CC(c1cc2c(cc1Br)OCO2)N1CCOCC1` (stereo not given), the GI50 in the assay on SK-MEL-5 was 26.1 µM (inactive); with NCI-H226, 61.5 µM (inactive); in the assay on SW-620 it was 9.04 µM (inactive); with OVCAR-5, > 100 µM (inactive); with RXF 393, 19.9 µM (inactive); with A549, > 100 µM (inactive). In addition, the GI50 was 4.05 µM (inactive) in the assay on MDA-MB-435; 3.32 µM (inactive) in the assay on K562; > 100 µM (inactive) in the assay with T47D; 67.6 µM (inactive) in the assay on KM12; > 100 µM (inactive) in the assay with HCC 2998; 61.9 µM (inactive) in the assay on SNB-19. Further, the GI50 with RPMI-8226 was 20.3 µM (inactive); in the assay on Hs-578T, 25.6 µM (inactive); in the assay with SNB-75 it was 30.1 µM (inactive); in the assay on SF-539 it was 29.7 µM (inactive); with HCT-116, 6.5 µM (inactive).
